pIC50: −log10 of the molar value. Where two headings read alike, the source gives them in different places.

Broadly, the inhibition is the relative decrease from the control value, in per cent. Read a high inhibition as strong suppression.

The subject of the test is Wnt/β-catenin transcription. Kind of test: Wnt-3A-stimulated TOPFlash reporter assay in HEK293 cells. Conditions: for pIC50: Wnt-3A conditioned medium, 8 hour treatment, read-out: Inhibition Wnt/β-catenin transcription TopFlash IC50. Type of test: cell-based. As for the experimental part:
Stably transfected cells were seeded in 100 μl of cell growth medium/well in 96-well plates at 100% confluency. Fifty microliters of Wnt-3A conditioned medium containing the chemical compounds to be tested or DMSO was added to each well. After an 8 hour treatment, the cells were washed once with PBS and lysed with 55 μl of Passive Lysis Buffer supplied in the Dual-Luciferase Reporter Assay kit (Promega, Madison, Wis.). Twenty-five microliters of cell lysate was used for measuring luciferase activity in a 96-well plate reader (FluoStar Optima, BMG Labtech, Chicago, Ill.). Data were fit using GraphPad Prism (mean±SEM, n>=2).

`COc1cc(O)c(C(=O)Nc2cccc(Cl)c2)cc1Cl` [Compound 56, 5-chloro-N-(3-chlorophenyl)-2-hydroxy-4-methoxybenzamide]: the “Inhibition Wnt/β-catenin transcription TopFlash, result in words” value (up to 10 μM) is listed as “No inhibition”.
`O=C(Nc1ccc(C(F)(F)F)cc1)c1cnc2ccccc2c1O` [Compound 49, 4-hydroxy-N-(4-(trifluoromethyl)phenyl)quinoline-3-carboxamide]: under “up to 12 μM”, the “Inhibition Wnt/β-catenin transcription TopFlash, result in words” value is reported as “Stimulates up”.
`COc1cc(O)c(C(=O)Nc2ccc([N+](=O)[O-])cc2Cl)cc1Cl` [Compound 54, 5-chloro-N-(2-chloro-4-nitrophenyl)-2-hydroxy-4-methoxybenzamide]: the “Inhibition Wnt/β-catenin transcription TopFlash, % inhibition @ 1 μM” value (1 μM) came out at 70% inhibition.
For the setting “Homo sapiens, HEK293, 8 h”, `C#CCOc1cc(N=[N+]=[N-])ccc1NC(=O)c1cc(Cl)ccc1O` [Compound 37, N-(4-azido-2-(prop-2-yn-1-yloxy)phenyl)-5-chloro-2-hydroxybenzamide] showed an inhibition at 2 µM of 40%.
As to `CCCCCCC(=O)Oc1ccc(Cl)cc1C(=O)N(C(=O)CCCCCC)c1ccc([N+](=O)[O-])cc1Cl` [Compound 77, 4-Chloro-2-((2-chloro-4-nitrophenyl)(heptanoyl)carbamoyl)phenyl heptanoate], under “Homo sapiens, HEK293, 8 h”, the pIC50 was 5.80.
Consider `O=C(Nc1ccc([N+](=O)[O-])c(Cl)c1)c1cc(Cl)ccc1O` [Compound 36, 5-chloro-N-(3-chloro-4-nitrophenyl)-2-hydroxybenzamide], for which the inhibition at 2 µM (Homo sapiens, HEK293, 8 h) was 90%.
With `Cc1cc([N+](=O)[O-])ccc1NC(=O)c1cc(Cl)ccc1O` [Compound 26, 5-chloro-2-hydroxy-N-(2-methyl-4-nitrophenyl)benzamide], the “Inhibition Wnt/β-catenin transcription TopFlash, % inhibition @ 3 μM” value (3 μM) is recorded as 80% inhibition.
In turn, `COc1ccc(C(=O)Nc2ccc([N+](=O)[O-])cc2Cl)c(O)c1` [Compound 53, N-(2-chloro-4-nitrophenyl)-2-hydroxy-4-methoxybenzamide] displayed an inhibition at 2 µM (Homo sapiens, HEK293, 8 h) of 70%.
Take `CCCCCCCCCCCCCCCCCC(=O)Oc1ccc(Cl)cc1C(=O)Nc1ccc([N+](=O)[O-])cc1Cl` [Compound 62, 4-chloro-2-((2-chloro-4-nitrophenyl)carbamoyl)phenyl stearate]: for the setting “Homo sapiens, HEK293, 8 h”, the inhibition at 10 µM was found to be 70%.
Compound `COc1cc(O)c(C(=O)Nc2ccc(F)cc2Cl)cc1Cl` [Compound 55, 5-chloro-N-(2-chloro-4-fluorophenyl)-2-hydroxy-4-methoxybenzamide] came in with an inhibition at 10 µM (Homo sapiens, HEK293, 8 h) of 70%.
Regarding `O=C(Nc1ccccc1)c1ccc(NC(=O)c2cc(Cl)ccc2O)cc1` [Compound 40, 5-chloro-2-hydroxy-N-(4-(phenylcarbamoyl)phenyl)benzamide], where the note is “Homo sapiens, HEK293, 8 h”, the pIC50 is 4.48.
As for `COc1cc(O)c(C(=O)Nc2ccc(OCc3ccccc3)c(Cl)c2)cc1OC` [Compound 47, N-(4-(benzyloxy)-3-chlorophenyl)-2-hydroxy-4,5-dimethoxybenzamide], the “Inhibition Wnt/β-catenin transcription TopFlash, result in words” value (concentration not given) is listed as “stimulates”.
As for `O=C(Nc1ccc([N+](=O)[O-])cc1)c1cc(Cl)ccc1O` [B, 5-chloro-2-hydroxy-N-(4-nitrophenyl)benzamide, reference compound], the pIC50 is less than 4.92.
Turning to `CS(=O)(=O)Nc1ccc(Cl)cc1C(=O)Nc1ccc([N+](=O)[O-])cc1Cl` [Compound 51, 5-chloro-N-(2-chloro-4-nitrophenyl)-2-(methylsulfonamido)benzamide], the inhibition at 10 µM (Homo sapiens, HEK293, 8 h) came out at 70%.
Regarding `O=CCOc1cc([N+](=O)[O-])ccc1NC(=O)c1cc(Cl)ccc1O` [Compound 31, 5-chloro-2-hydroxy-N-(4-nitro-2-(2-oxoethoxy)phenyl)benzamide], where the note is “Homo sapiens, HEK293, 8 h”, the inhibition at 2 µM was 55%.
Take `O=C(Nc1ccc(OCc2ccccc2)c(Cl)c1)c1cc(Cl)ccc1O` [Compound 27, N-(4-(benzyloxy)-3-chlorophenyl)-5-chloro-2-hydroxybenzamide]: under “Homo sapiens, HEK293, 8 h”, testing at 2 µM gave an inhibition of 75%.
Take `COc1cc(NC(=O)c2cc(Cl)ccc2O)ccc1[N+](=O)[O-]` [Compound 35, 5-chloro-2-hydroxy-N-(3-methoxy-4-nitrophenyl)benzamide]: for the setting “Homo sapiens, HEK293, 8 h”, the inhibition at 10 µM stood at 40%.
